Source: PMC5833749 (Cell Death & Disease, 2018)
Values joined by “and” are separate entries in the source; they are usually repeats but may differ in a detail not shown here. Identical values can stand only once. “Also recorded” adds a separate entry of the source. Like-named read-outs stand apart in the source and are kept apart here.

Assays:
[1] = test system: L929sAhFas cells; experiment: mTNF-induced RIPK1-dependent necroptosis; assay type: cell-based, murine
Experimental: (§1) Data represent mean values ±S.E.M., n = 6. […] Data represent mean values ±S.E.M. (g–l).
(§2) Data were analysed using the Columbus software package (PerkinElmer).

[2] = test system: L929sAhFas cells; experiment: mTNF+zVAD.fmk-induced necroptosis (sensitising condition)
[3] = biological target: T1, hAurora kinase B (Homo sapiens, UniProt Q96GD4); experiment: In vitro ADP-Glo kinase assay; assay type: biochemical; details: dose response, Fig. 3c
T1 construct: purchased Promega V9181
T1 sequence (Q96GD4 whole entry): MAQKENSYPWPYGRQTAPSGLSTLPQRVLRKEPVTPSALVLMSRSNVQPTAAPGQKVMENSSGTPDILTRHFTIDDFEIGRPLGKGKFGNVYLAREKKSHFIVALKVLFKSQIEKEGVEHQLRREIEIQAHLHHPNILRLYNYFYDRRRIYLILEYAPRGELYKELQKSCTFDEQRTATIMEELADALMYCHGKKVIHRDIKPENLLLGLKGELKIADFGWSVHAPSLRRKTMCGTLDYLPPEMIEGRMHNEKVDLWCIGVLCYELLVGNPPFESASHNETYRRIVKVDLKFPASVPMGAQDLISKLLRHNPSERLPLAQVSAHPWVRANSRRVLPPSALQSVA
Experimental: (§3) Compounds (concentrations as indicated) were co-incubated with recombinant hRIPK1 (100 nM) (produced in our laboratory), hAurora kinase A (25 nM) or hAurora kinase B (25 nM) (ADP-Glo^TM kinase assay + Aurora A/Aurora B kinase enzyme system, Promega, V9081 and V9181). For hRIPK1, the kinase assay buffer (2×) contains 50 mM HEPES pH 7.5, 30 mM MgCl2, 50 mM NaCl, 0.5 mg/mL BSA, 0.02% CHAPS and 1 mM DTT. For the Aurora kinases, the kinase assay buffer was used from the promega assay (V9081, V9181). Next, the in vitro ADP-Glo^TM kinase assay (Promega, V6930) was used to determine kinase activity. The assay was performed according to the manufacturer’s protocol. The primary kinase reaction was carried out for 4 h at room temperature and a 2:2:1 ratio of kinase reaction volume to ADP-Glo reagent volume to kinase detection reagent volume was used.

[4] = biological target: T2, recombinant hRIPK1 (Homo sapiens, UniProt Q13546); experiment: In vitro ADP-Glo kinase assay; assay type: biochemical; details: dose response, Fig. 3a
T2 construct: made in house
T2 sequence (Q13546 1-671): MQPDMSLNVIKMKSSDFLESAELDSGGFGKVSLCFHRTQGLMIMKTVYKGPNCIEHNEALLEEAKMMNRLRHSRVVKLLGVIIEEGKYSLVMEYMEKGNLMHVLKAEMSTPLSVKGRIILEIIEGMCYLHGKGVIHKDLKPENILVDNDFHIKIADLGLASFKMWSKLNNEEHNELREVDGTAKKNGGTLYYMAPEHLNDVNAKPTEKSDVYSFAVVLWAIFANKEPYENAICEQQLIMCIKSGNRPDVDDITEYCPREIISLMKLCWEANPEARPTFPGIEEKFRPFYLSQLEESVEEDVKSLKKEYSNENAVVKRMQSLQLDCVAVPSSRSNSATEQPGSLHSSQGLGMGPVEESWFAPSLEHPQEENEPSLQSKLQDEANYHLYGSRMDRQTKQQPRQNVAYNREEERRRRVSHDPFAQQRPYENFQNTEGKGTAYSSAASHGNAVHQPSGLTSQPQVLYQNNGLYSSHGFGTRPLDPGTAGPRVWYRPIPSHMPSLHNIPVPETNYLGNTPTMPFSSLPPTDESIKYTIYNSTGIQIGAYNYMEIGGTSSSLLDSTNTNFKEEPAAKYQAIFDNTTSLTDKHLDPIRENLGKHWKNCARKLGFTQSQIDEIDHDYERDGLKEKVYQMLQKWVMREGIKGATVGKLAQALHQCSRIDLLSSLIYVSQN
Experimental: as §3

[5] = biological target: T3, hAurora kinase A (Homo sapiens, UniProt O14965); experiment: In vitro ADP-Glo kinase assay; assay type: biochemical; details: dose response, Fig. 3b
T3 construct: purchased Promega V9081
T3 sequence (O14965 1-403): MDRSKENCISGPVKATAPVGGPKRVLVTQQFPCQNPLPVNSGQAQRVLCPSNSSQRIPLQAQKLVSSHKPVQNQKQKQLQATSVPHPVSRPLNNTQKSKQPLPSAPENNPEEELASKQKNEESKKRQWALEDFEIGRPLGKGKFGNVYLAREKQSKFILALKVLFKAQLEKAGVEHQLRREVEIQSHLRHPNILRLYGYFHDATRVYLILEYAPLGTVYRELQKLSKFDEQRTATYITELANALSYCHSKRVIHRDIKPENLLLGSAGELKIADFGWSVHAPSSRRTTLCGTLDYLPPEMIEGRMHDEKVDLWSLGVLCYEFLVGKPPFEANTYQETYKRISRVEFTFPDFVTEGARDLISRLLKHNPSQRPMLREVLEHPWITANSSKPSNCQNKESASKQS
Experimental: as §3

[6] = test system: L929sAhFas cells; experiment: High-content imaging of cell growth, nuclear area and nuclear roundness (cytokinesis defects); assay type: cell-based, murine; details: for Cytokinesis defects (nuclear roundness, nuclear area): 10 µM, 24 h
Experimental: as §1, §2

[7] = test system: MEF cells; experiment: RIPK1-dependent apoptosis (hTNF+Tak1i); assay type: cell-based, murine; details: 10 µM, pre-treated 1 h, hTNF 20 ng/mL + Tak1i 1 µM
[8] = test system: L929sAhFas cells; experiment: Cytotoxicity of the compound alone (% PI-negative cells); assay type: cell-based, murine; details: 10 µM or lower, 24 h
Source text: Supplementary Figure 1. […] Data represent mean ± S.E.M. of 3 independent experiment. One-way Anova with Tukey correction for multiple testing has been performed.

[9] = test system: HT29 cells; experiment: hTNF+Tak1i+zVAD.fmk-induced necroptosis
[10] = test system: L929sAhFas cells; experiment: Clonogenic assay (colony-forming capacity); assay type: cell-based, murine
Experimental: […]. […] Data represent mean values ±S.E.M., n = 6. […] […]. […] Data represent mean values ±S.E.M. (g–l).
Next, treatment was removed and 50 cells/condition were seeded. After 10 days, cells were fixed with 4% PFA for 10 min. After fixation, cells were stained with a 0.01% crystal violet solution for 1 h. Cells were washed with PBS, dried overnight and images were taken. Colonies were counted using ImageJ.

[11] = test system: L929sAhFas cells; experiment: RIPK1-independent apoptosis by agonistic anti-Fas antibody; assay type: cell-based, murine; details: 10 µM, pre-treated 1 h, agonistic anti-Fas antibody 250 ng/mL
[12] = test system: endogenous Aurora A (Aur A) and B (Aur B); experiment: Immunoblot of autophosphorylation of endogenous Aurora A and B; assay type: cell-based, murine; details: 10 µM, 16 h
Experimental: Then, a clonogenic assay was performed to determine colony-forming capacity. Quantification was performed using ImageJ. […] Data represent mean values ±S.E.M., n = 6. […] Data represent mean values ±S.E.M. (g–l).
Antibodies used were anti-phospho-Aurora A (Thr288)/Aurora B (Thr232)/Aurora C (Thr198) (D13A11) (Cell Signaling, #2914, Danvers, MA, USA), anti-tubulin-HRP (abcam, ab21058, Cambridge, UK). After treatments, cells were washed twice with PBS and lysed with 2× Laemmli buffer directly. These samples were used for SDS-PAGE and immunoblotting. Tubulin was used as loading control.

[13] = biological target: recombinant mRIPK3 (Mus musculus, UniProt Q9QZL0); experiment: In vitro ADP-Glo kinase assay; assay type: biochemical; details: 10 µM; mRIPK3 15 nM
Chain of recombinant mRIPK3 (Q9QZL0 whole entry): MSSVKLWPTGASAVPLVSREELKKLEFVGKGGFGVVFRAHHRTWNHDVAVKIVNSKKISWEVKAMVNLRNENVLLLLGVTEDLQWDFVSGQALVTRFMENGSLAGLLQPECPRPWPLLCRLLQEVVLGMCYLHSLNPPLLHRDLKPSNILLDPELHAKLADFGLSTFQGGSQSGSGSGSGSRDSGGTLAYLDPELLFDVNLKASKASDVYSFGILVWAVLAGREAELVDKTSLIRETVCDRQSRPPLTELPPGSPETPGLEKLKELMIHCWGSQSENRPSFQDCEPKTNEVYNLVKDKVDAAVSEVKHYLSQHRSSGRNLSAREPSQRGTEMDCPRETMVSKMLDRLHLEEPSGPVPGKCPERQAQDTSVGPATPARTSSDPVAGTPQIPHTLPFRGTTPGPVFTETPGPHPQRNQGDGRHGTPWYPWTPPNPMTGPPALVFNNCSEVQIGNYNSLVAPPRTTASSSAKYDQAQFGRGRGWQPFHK
Experimental: Supplementary Figure 5. […] An in vitro ADP-Glo kinase assay using recombinant mRIPK3 (15 nM) (A) was performed. […] Data represent mean value ± S.E.M. of 3 independent experiment. One-way ANOVA with Tukey correction for multiple testing has been performed (**** p<0.0001 ).

[14] = test system: L929sAhFas cells; experiment: Cellular screening of Tozasertib analogues for cytokinesis defects and inhibition of necroptosis; assay type: cell-based, murine; details: 3 µM, 0.5 h or 24 h pre-treatment
Experimental: Next, cells were left unstimulated or stimulated with mTNF (40 ng/mL) + zVAD.fmk (10 µM) for […]. Proliferation, nuclear area and cell death were quantified by staining the cells with propidium iodide (PI) (3 µM) and Hoechst (1 µM) for image analysis with BD pathway. […] Significance was analysed using repeated measurements data analysis. […] Cells were stimulated for 7 h with mTNF and 4 h with mTNF + zVAD.fmk. Data represent mean values ±S.E.M. (n = 2). […] Dose responses were included in the screening (b–c) assay conditions.
as §2

[15] = Mus musculus, read-out: Necroptosis IC50, Aurora inhibitor panel, dose-response 10-0.0022 µM, pre-treated 1 h, mTNF 20 ng/mL 5 h, nonlinear regression
[16] = pre-treated 1 h, mTNF 20 ng/mL 5 h

O=C(Nc1cccc(Cl)c1)Nc1ncc(CCNc2ncnc3ccsc23)s1 [SNS-314]
IC50 [1, 15]: 400 nM | IC50 ([1]; read-out: Necroptosis IC50, Aurora inhibitor panel, dose-response 10-0.0022 µM, pre-treated 1 h, mTNF 20 ng/mL 5 h, nonlinear regression): 399 nM

Cc1csc(-c2nnc(Nc3ccc(Oc4ncccc4-c4ccnc(N)n4)cc3)c3ccccc23)c1 [AMG-900]
Inhibition of TNF-induced necroptosis by Aurora kinase inhibitors (in words) [1, 16]: cannot inhibit necroptosis; also recorded: not able to protect

CN1C(=O)NC(Cc2c[nH]c3c(Cl)cccc23)C1=O (centres unmarked) [Nec-1s, Necrostatin-1s]
IC50 ([2]; read-out: Necroptosis L929-mTNF+zVAD IC50, pre-treatment 1 h, necroptosis treatment 3 h, Probit analysis): 240 nM | Inhibition of hAur B kinase activity (in words) [3]: only inhibits recombinant hRIPK1 | Inhibition of hRIPK1 kinase activity (in words) [4]: only inhibits recombinant hRIPK1 | Inhibition of hAur A kinase activity (in words) [5]: only inhibits recombinant hRIPK1 | Cytokinesis defects (nuclear roundness, nuclear area) [6]: does not result in cytokinesis defects | IC50 ([1]; Aurora inhibitor panel, dose-response 10-0.0022 µM, pre-treated 1 h, mTNF 20 ng/mL 5 h, nonlinear regression, read-out: Necroptosis IC50): 367 nM | IC50 ([1]; pre-treatment 1 h, mTNF 20 ng/mL 5 h, Probit analysis, read-out: Necroptosis L929-mTNF IC50): 149 nM

CO[C@@H](C(=O)N1Cc2n[nH]c(NC(=O)c3ccc(N4CCN(C)CC4)cc3)c2C1)c1ccccc1 [Danusertib]
IC50 [1, 15]: 13900 nM | Inhibition of TNF-induced necroptosis by Aurora kinase inhibitors (in words) [1, 16]: not able to protect

CCN(CCCOc1ccc2c(Nc3cc(CC(=O)Nc4cccc(F)c4)n[nH]3)ncnc2c1)CCOP(=O)(O)O [Barasertib]
Inhibition of TNF-induced necroptosis by Aurora kinase inhibitors (in words) [1, 16]: not able to protect

Cc1cc(Nc2cc(N3CCN(C)CC3)nc(Sc3ccc(NC(=O)C4CC4)cc3)n2)[nH]n1 [Tozasertib]
Inhibition of RIPK1-dependent apoptosis [7]: inhibits RIPK1-dependent apoptosis | Toxicity of the compound on itself [8]: not cytotoxic; also recorded: not toxic | Protective effect against necroptosis at 10 µM ([9]; 10 µM, hTNF+Tak1i+zVAD.fmk 16 h): partially lost | Protection against necroptosis in HT29 (in words) ([9]; pre-treated 1 h, hTNF+Tak1i+zVAD.fmk 17 h): protect against necroptosis | Protective effect against necroptosis at 10 µM ([2]; 10 µM, mTNF+zVAD.fmk 3 h): partially lost | Protection against necroptosis in L929sAhFas (in words) ([2]; pre-treated 1 h, stimulation 3 h, sensitised condition (mTNF+zVAD.fmk) per text): protect against necroptosis | Concentration from which colony formation is impaired ([10]; 24 h treatment): ≥ 0.2 µM | IC50 ([10]; Mus musculus, 24 h, read-out: Clonogenicity IC50): 122 nM | Mean nuclear area at highest concentration ([6]; 48 h, highest concentration): 250 µm^2 | Mean nuclear roundness at highest concentration ([6]; 48 h, 0 = straight line, 1 = perfect circle): 0.80 | EC50 ([6]; Mus musculus, 48 h, read-out: Nuclear area (values represent EC50), compound treatment 48 h, Probit analysis): 554 nM | IC50 ([6]; Mus musculus, 48 h, read-out: Nuclear roundness IC50, compound treatment 48 h, Probit analysis): 1640 nM | EC50 ([6]; Mus musculus, read-out: Cytokinesis EC50 (nuclear area), Aurora inhibitor panel, dose-response 10-0.0022 µM, pre-treated 1 h, mTNF 20 ng/mL 5 h, nonlinear regression): 591 nM | Inhibition of RIPK1-independent (Fas-mediated) apoptosis [11]: no inhibition is observed | Autophosphorylation of endogenous Aurora A and B [12]: inhibition of autophosphorylation | Protection against TNF-induced RIPK1-dependent necroptosis over time ([1]; 3 µM, pre-treated 1 h, mTNF 20 ng/mL): protects | IC50 ([1]; Mus musculus, L929, read-out: IC50 L929 TNF-induced necroptosis as given in the Discussion, condition not specified): 700 nM | IC50 ([1]; read-out: Necroptosis L929-mTNF IC50, pre-treatment 1 h, mTNF 20 ng/mL 5 h, Probit analysis): 550 nM and 554 nM | Inhibition of recombinant mRIPK3 kinase activity [13]: does not inhibit; also recorded: not able to inhibit

O=C(O)c1ccc(Nc2ncc3c(n2)-c2ccc(Cl)cc2C(c2c(F)cccc2F)=NC3)cc1 [MLN-8054]
Cytokinesis and proliferation in the analogue screening (in words) [14]: cytokinesis inhibition | Necroptosis in the analogue screening (in words) ([14]; mTNF 40 ng/mL + zVAD.fmk 10 µM 3 h): without affecting RIPK1-dependent cell death

CC(C)(C)C(=O)N1N=CC[C@H]1c1ccccc1 [GSK’963]
Cytokinesis defects (nuclear roundness, nuclear area) [6]: did not affect cytokinesis
